The source of these data is ChEMBL document CHEMBL3864133, “Discovery of a Potent and Selective in Vivo Probe (GNE-272) for the Bromodomains of CBP/EP300” (J Med Chem, 2016).

Where only a bound is given, the exact number is not on record here.

Data set [1] concerns the target T1, Bromodomain-containing protein 4 (Homo sapiens, UniProt O60885). In words: Displacement of biotinylated ligand from recombinant His-tagged BRD4 bromodomain-1 (unknown origin) measured after 10 mins by TR-FRET assay.
Data set [2] is described as follows: Apparent permeability of the compound across apical side to basolateral side in MDCK cells at 10 uM measured after 180 mins by LC-MS/MS analysis. Format: ADME, cell-based, Canis lupus familiaris. Conditions: dog.
The nature of data set [3]: Drug metabolism in mouse liver microsomes assessed as phenyl ring oxidation at 10 uM up to 1 hr in presence of NADPH by LC-MS analysis. In kind it is ADME. A general note: Liver microsomes are vesicles of endoplasmic reticulum, rich in cytochrome P450 enzymes.
The nature of data set [4]: Drug metabolism in human liver microsomes assessed as cleavage of cyclopropylmethyl moiety at 10 uM up to 1 hr in presence of NADPH by LC-MS analysis. Format: ADME.
The nature of data set [5]: Drug metabolism in mouse liver microsomes assessed as cleavage of cyclopropylmethyl moiety at 10 uM up to 1 hr in presence of NADPH by LC-MS analysis. In kind it is ADME.
The nature of data set [6]: Drug metabolism in human liver microsomes assessed as phenyl ring oxidation at 10 uM up to 1 hr in presence of NADPH by LC-MS analysis. Format: ADME.
Data set [7] concerns the target T2, CREB-binding protein/Histone acetyltransferase p300 (Homo sapiens, UniProt Q09472+Q92793). In words: Displacement of biotinylated ligand from recombinant His-tagged CBP/EP300 (unknown origin) measured after 10 mins by TR-FRET assay. Format: protein assay. (In general: Time-resolved FRET reads energy transfer from a long-lived donor to a nearby acceptor.)
The target of data set [8] is T3, CREB-binding protein (Homo sapiens, UniProt Q92793). In words: Displacement of biotinylated ligand from CBP (unknown origin) by TR-FRET assay.
Data set [9] addresses T2, CREB-binding protein/Histone acetyltransferase p300. In words: Inhibition of CBP/EP300 (unknown origin) assessed as reduction in MYC expression by cell based assay.
The target in data set [10] is T3, CREB-binding protein. In words: Inhibition of Halo-tagged histone H3.3 binding to NanoLuc luciferase conjugated CBP (unknown origin) expressed in HEK293 cells after overnight incubation by BRET assay. In kind it is cell-based. Background: BRET reads energy transfer from a luciferase to a nearby fluorophore.
The target in data set [11] is T1, Bromodomain-containing protein 4. Kind of data set: Displacement of biotinylated ligand from BRD4 bromodomain-1 (unknown origin) by TR-FRET assay.
The target in data set [12] is T2, CREB-binding protein/Histone acetyltransferase p300. In words: Inhibition of Halo-tagged histone H3.3 binding to CBP/EP300 (unknown origin) expressed in HEK293 cells measured after overnight incubation by luciferase reporter gene based BRET assay. Format: cell-based.
Data set [13] is described as follows: Oral bioavailability in mouse. In kind it is ADME, organism-based. To be noted: in vivo.
Data set [14] in a line: Clearance in mouse. In kind it is ADME, organism-based. To be noted: in vivo.
The nature of data set [15]: Drug metabolism in CD-1 mouse hepatocytes assessed as glucuronidation of compound at 1 uM up to 180 mins by LC-MS/MS analysis. Format: ADME, cell-based, Hepatocyte. To be noted: 3 h.

T3 sequence (Q92793 whole entry): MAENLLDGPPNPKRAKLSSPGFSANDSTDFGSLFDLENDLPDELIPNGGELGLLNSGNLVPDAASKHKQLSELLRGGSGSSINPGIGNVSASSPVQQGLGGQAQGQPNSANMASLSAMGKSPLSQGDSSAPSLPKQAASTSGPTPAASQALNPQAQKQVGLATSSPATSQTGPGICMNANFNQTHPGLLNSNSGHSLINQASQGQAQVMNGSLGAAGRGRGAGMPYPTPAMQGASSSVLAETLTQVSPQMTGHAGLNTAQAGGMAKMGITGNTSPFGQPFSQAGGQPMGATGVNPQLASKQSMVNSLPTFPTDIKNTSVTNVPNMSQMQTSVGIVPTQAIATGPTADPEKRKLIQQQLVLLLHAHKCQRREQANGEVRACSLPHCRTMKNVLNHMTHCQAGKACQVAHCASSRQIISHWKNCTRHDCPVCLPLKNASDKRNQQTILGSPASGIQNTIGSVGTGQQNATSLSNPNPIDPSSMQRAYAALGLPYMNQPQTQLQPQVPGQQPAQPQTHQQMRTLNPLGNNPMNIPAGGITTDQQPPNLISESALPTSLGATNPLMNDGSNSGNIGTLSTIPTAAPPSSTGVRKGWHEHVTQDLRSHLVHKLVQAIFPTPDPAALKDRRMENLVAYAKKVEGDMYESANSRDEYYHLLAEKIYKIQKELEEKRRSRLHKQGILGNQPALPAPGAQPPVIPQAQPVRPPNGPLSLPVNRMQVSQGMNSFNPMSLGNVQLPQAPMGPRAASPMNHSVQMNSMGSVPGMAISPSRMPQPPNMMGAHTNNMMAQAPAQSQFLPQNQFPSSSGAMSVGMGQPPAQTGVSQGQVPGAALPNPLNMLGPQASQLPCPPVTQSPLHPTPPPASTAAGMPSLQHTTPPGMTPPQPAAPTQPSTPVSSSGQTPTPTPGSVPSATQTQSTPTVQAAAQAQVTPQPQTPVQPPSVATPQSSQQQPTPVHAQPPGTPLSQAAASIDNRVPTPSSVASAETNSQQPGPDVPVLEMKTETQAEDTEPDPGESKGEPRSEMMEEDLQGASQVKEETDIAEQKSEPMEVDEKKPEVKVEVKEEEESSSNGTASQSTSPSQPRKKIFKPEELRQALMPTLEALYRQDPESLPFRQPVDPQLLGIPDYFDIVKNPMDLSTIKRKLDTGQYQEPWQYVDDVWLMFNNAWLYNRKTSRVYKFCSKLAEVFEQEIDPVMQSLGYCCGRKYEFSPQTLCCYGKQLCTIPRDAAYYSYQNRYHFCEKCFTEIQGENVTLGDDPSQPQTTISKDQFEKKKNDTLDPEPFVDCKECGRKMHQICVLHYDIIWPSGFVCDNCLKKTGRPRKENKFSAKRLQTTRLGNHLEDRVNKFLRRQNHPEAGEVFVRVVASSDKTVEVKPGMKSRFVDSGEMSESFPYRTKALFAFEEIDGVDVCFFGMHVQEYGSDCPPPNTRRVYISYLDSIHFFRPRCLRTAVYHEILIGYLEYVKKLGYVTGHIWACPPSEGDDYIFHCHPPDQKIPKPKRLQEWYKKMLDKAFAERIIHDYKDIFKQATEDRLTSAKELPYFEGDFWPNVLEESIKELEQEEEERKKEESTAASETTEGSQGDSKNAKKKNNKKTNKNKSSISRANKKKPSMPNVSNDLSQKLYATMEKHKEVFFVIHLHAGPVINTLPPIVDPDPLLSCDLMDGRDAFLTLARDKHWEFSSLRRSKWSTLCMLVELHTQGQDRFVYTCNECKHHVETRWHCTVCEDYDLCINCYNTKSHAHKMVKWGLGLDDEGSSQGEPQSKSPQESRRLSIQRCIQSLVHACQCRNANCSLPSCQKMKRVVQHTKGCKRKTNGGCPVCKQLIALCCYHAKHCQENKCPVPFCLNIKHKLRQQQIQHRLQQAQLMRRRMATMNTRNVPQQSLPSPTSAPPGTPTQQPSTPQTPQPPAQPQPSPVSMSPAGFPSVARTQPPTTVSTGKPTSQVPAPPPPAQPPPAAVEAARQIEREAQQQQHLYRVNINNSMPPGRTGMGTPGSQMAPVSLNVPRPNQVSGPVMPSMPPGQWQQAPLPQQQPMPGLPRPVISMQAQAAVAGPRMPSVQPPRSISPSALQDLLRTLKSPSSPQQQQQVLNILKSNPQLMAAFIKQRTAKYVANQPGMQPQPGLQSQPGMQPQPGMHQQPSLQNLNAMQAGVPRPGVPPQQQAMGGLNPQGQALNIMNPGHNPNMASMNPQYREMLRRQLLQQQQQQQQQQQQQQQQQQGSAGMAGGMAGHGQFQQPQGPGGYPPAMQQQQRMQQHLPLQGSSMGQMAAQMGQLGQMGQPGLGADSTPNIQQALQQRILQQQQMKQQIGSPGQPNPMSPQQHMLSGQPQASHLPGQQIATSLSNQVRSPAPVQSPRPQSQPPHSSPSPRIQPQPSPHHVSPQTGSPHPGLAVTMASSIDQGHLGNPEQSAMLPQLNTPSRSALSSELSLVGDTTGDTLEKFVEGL

In general, IC50 refers to the concentration needed to halve the response being measured. What is called Papp A→B is the apparent permeability from the apical to the basolateral side of a cell layer. On to `CC(=O)N1CCc2c(c(Nc3cccc(-c4cnn(C)c4)c3)nn2CC2CC2)C1`, for which the IC50 in data set [1] amounted to 4.2 µM. Besides, the Papp A→B at 3 h, 10 µM in [2] is 18 ×10⁻⁶ cm/s. Moreover, the Drug metabolism result in [3], in [4], in data set [5] and in data set [6] was “Metabolite_Detected” in each case.

Turning to `Cc1cccc(Nc2n[nH]c3c2CN(C(=O)C(F)(F)F)CC3)c1`, the IC50 in [1] is over 20 µM; in [7] it was 4.3 µM.

On to `COC(=O)c1cccc(Nc2n[nH]c3c2CN(C(C)=O)CC3)c1`, for which the figures for the IC50 in [1] and in data set [7] were 18 µM and 0.11 µM, respectively.

Turning to `CCC(=O)N1CCc2[nH]nc(Nc3cccc(C)c3)c2C1`, the half-maximal inhibitory concentration (IC50) is over 20 µM in data set [1] and 1.4 µM in [7].

By EC50 is commonly meant the midpoint of the concentration-response curve. Consider `CCCOc1ccc(CCc2nc3cc(-c4c(C)noc4C)ccc3n2CCN2CCOCC2)cc1`, for which the values for the half-inhibitory concentration (IC50) (at CREB-binding protein [8]; on CREB-binding protein [10]; in [11]) were 0.19 µM, over 10 µM and 2.9 µM, respectively. Further, in data set [9], the concentration for a half-maximal effect (EC50) turned out to be 6.6 µM.

As for `CC(=O)N1CCc2c(c(Nc3cccc(-c4cccnc4)c3)nn2CC2CC2)C1`, the IC50 in data set [1] was determined as 4 µM. Moreover, the apparent permeability from apical to basolateral (Papp A→B) at 3 h, 10 µM in data set [2] was 24 ×10⁻⁶ cm/s.

Turning to `CC(=O)N1CCc2c(c(Nc3cccc(C)c3)nn2CCC2CC2)C1`, the IC50 in [1] was 9.8 µM; in data set [7], 0.18 µM.

`COc1ccc(CCc2nc3cc(-c4c(C)noc4C)ccc3n2C[C@H](C)N2CCOCC2)cc1Cl`: in data set [11], the IC50 turned out to be 3.2 µM.

As to `CC(=O)N1CCc2c(c(Nc3ccc(-c4cnn(C)c4)cc3)nn2C2CCOC2)C1` (single isomer, unassigned; 57), the IC50 in data set [1] stood at 8.5 µM.

Take `CC(=O)N1CCc2c(c(Nc3cccc(-c4ccnn4C)c3)nn2CC2CC2)C1`: the IC50 in data set [1] was determined as 3.7 µM. Moreover, the Papp A→B at 3 h, 10 µM in data set [2] was found to be 15 ×10⁻⁶ cm/s.

Regarding `CCNC(=O)c1cccc(Nc2nn(CC3CC3)c3c2CN(C(C)=O)CC3)c1`, the results for the IC50 in data set [1], in data set [12] and in [7] were 7.7 µM, 1.5 µM and 0.04 µM, respectively.

For the compound `CC(=O)N1CCc2c(c(Nc3cccc(-c4cnoc4)c3)nn2CC2CC2)C1`, in data set [1], the IC50 was found to be 8.6 µM.

`CC(=O)N1CCc2c(c(Nc3cccc(C)c3)nn2Cc2ccccn2)C1`: the half-inhibitory concentration (IC50) in [1] is 7.3 µM.

On to `CC(=O)N1CCc2[nH]nc(Nc3cccc(OC(F)F)c3)c2C1`, for which the IC50 in data set [1] is over 20 µM; in data set [7], 0.16 µM.

With `COC(=O)c1ccc(Nc2n[nH]c3c2CN(C(C)=O)CC3)cc1`, the IC50 in [1] was over 20 µM; in data set [7] it was 0.14 µM.

`CCCC(=O)N1CCc2[nH]nc(Nc3cccc(C)c3)c2C1`: the IC50 in data set [1] was over 20 µM; in data set [7], over 5 µM.

As for `CC(=O)N1CCc2c(c(Nc3ccc(-c4cnn(C)c4)cc3)nn2C2CCOC2)C1` (single isomer, unassigned; 58), in data set [1], the IC50 amounted to 11 µM.

On to `CCc1cccc(Nc2n[nH]c3c2CN(C(C)=O)CC3)c1`, for which the IC50 in data set [1] is over 20 µM; in data set [7], 0.19 µM.

As for `CC(=O)N1CCc2c(c(Nc3cccc(-c4cn[nH]c4)c3)nn2CC2CC2)C1`, the IC50 in data set [1] was determined as 4.6 µM. Moreover, in data set [2], the Papp A→B at 3 h, 10 µM was found to be 7.3 ×10⁻⁶ cm/s.

Turning to `CCC(=O)N1CCOc2c(cc(-c3ccc(OC)c(OC)c3)cc2OC[C@H]2CCCN(C)C2)C1`, the IC50 on CREB-binding protein [8] is 0.44 µM; on CREB-binding protein [10], over 10 µM. Also, the half-maximal effective concentration (EC50) in [9] was over 10 µM.

In the case of `CC(=O)N1CCc2c(c(Nc3cccc(-c4ccccn4)c3)nn2CC2CC2)C1`, the Papp A→B at 3 h, 10 µM in [2] amounted to 15 ×10⁻⁶ cm/s. In addition, the IC50 in data set [12] is 0.56 µM; in [7], 0.03 µM.

For `CCCn1nc(Nc2cccc(C)c2)c2c1CCN(C(C)=O)C2`, the figures for the IC50 in data set [1] and in data set [7] were 14 µM and 0.07 µM, respectively.

For the compound `CC(=O)N1CCc2[nH]nc(Nc3cccc(C(F)(F)F)c3)c2C1`, the IC50 turned out to be 18 µM in [1] and 0.1 µM in data set [7].

As to `CC(=O)N1CCc2c(c(Nc3cccc(-c4ccn[nH]4)c3)nn2CC2CC2)C1`, the IC50 in data set [1] worked out at 3.8 µM. Further, in data set [2], the Papp A→B at 3 h, 10 µM was 6.3 ×10⁻⁶ cm/s.

On to `CC(=O)N1CCc2[nH]nc(Nc3cccc(C)c3)c2C1`, for which the half-maximal inhibitory concentration (IC50) in data set [1] is over 20 µM; in data set [7], 0.34 µM.

In general, bioavailability refers to dose-corrected exposure relative to a reference, in per cent. As usually defined, the clearance is a measure of how efficiently the substance is removed, as volume per time. On to `CC(=O)N1CCc2c(c(Nc3cccc(C(=O)NC(C)C)c3)nn2CC2CC2)C1`, for which the Papp A→B at 3 h, 10 µM in data set [2] came out at 2.4 ×10⁻⁶ cm/s. For the same compound, the IC50 is 0.96 µM in data set [12] and 0.03 µM in data set [7]. For the same compound, the bioavailability in data set [13] turned out to be 5%. The clearance in data set [14] came to 43 mL/min/kg.

Consider `CC(=O)N1CCc2[nH]nc(Nc3ccccc3F)c2C1`, for which the values for the IC50 in [1] and in [7] were over 20 µM and 1.4 µM, respectively.

Regarding `COc1cccc(Nc2n[nH]c3c2CN(C(C)=O)CC3)c1`, the IC50 in [1] was over 20 µM; in data set [7], 0.34 µM.

As for `CC(=O)N1CCc2[nH]nc(Nc3ccc(C)cc3)c2C1`, the IC50 in data set [1] was over 20 µM; in [7] it was 0.3 µM.

As for `Cc1cccc(Nc2n[nH]c3c2CN(C(=O)C2CC2)CC3)c1`, the values for the IC50 in data set [1] and in [7] were over 20 µM and 4.1 µM, respectively.

On to `CC(=O)N1CCc2c(c(Nc3cccc(C)c3)nn2C)C1`, for which the half-inhibitory concentration (IC50) in data set [1] is over 20 µM.

With `CC(=O)N1CCc2c(c(Nc3cccc(C)c3)nn2Cc2cccnc2)C1`, in data set [1], the half-maximal inhibitory concentration (IC50) stood at 5.6 µM.

On to `CC(=O)N1CCc2c(c(Nc3cccc(C)c3)nn2Cc2ccncc2)C1`, for which the IC50 in data set [1] came to 5.9 µM.

For `CC(=O)N1CCc2c(c(Nc3ccc(-c4cnn(C)c4)cc3)nn2CC2CC2)C1`, the Drug metabolism result in data set [15] is recorded as “Metabolite_Detected”. In addition, the half-inhibitory concentration (IC50) in data set [1] stood at 6.4 µM. In addition, in data set [14], the clearance was determined as 118 mL/min/kg.

In the case of `CC(=O)N1CCc2c(c(Nc3cccc(-c4ccccc4)c3)nn2CC2CC2)C1`, the IC50 in data set [1] was found to be 4.6 µM; in data set [12] it was 2.5 µM. Moreover, the Papp A→B at 3 h, 10 µM in data set [2] is 26 ×10⁻⁶ cm/s.

Consider `CC(=O)N1CCc2[nH]nc(Nc3ccc(F)cc3)c2C1`, for which the IC50 was over 20 µM in data set [1] and 0.91 µM in data set [7].

Turning to `CCc1ccc(Nc2n[nH]c3c2CN(C(C)=O)CC3)cc1`, the IC50 is over 20 µM in [1] and 0.25 µM in data set [7].

In the case of `CC(=O)N1CCc2[nH]nc(Nc3ccccc3C)c2C1`, the IC50 in [1] is over 20 µM; in data set [7], 1.2 µM.

For `Cc1cccc(Nc2n[nH]c3c2CN(S(C)(=O)=O)CC3)c1`, the IC50 is over 20 µM in [1] and over 5 µM in [7].

`COCCn1nc(Nc2cccc(C)c2)c2c1CCN(C(C)=O)C2`: the IC50 in [1] is over 20 µM.

With `COCCNC(=O)c1cccc(Nc2nn(CC3CC3)c3c2CN(C(C)=O)CC3)c1`, in data set [1], the IC50 was over 20 µM.

As for `CC(=O)N1CCc2c(c(Nc3cccc(C)c3)nn2CCO)C1`, in data set [1], the IC50 is over 20 µM.

With `CC(=O)N1CCc2[nH]nc(Nc3cccc(F)c3)c2C1`, the values for the 50% inhibitory concentration (IC50) in data set [1] and in data set [7] were over 20 µM and 0.43 µM, respectively.

As to `CC(=O)N1CCc2c(c(Nc3cccc(C)c3)nn2CC2CC2)C1`, in data set [1], the IC50 is 13 µM.

For `CCCNC(=O)c1cccc(Nc2nn(CC3CC3)c3c2CN(C(C)=O)CC3)c1`, the IC50 was determined as 5.8 µM in data set [1], 1.3 µM in [12] and 0.03 µM in data set [7].

In the case of `CC(=O)N1CCc2c(c(Nc3cccc(-c4ccncc4)c3)nn2CC2CC2)C1`, the 50% inhibitory concentration (IC50) in data set [1] is 0.87 µM. Besides, the Papp A→B at 3 h, 10 µM in data set [2] was determined as 20 ×10⁻⁶ cm/s.

`CC(=O)N1CCc2c(c(Nc3ccc(-c4cnn(C)c4)cc3)nn2C2COC2)C1`: the IC50 in data set [1] was determined as 11 µM; in data set [12], 1.2 µM; in data set [7], 0.04 µM.
